# Assay results reported in paper PMC6007452 (Journal of Insect Science, 2018).
# T1: HaTreh-1 (soluble trehalase) (Helicoverpa armigera, UniProt A0A6B8YU37)
# T1 sequence (A0A6B8YU37 24-571): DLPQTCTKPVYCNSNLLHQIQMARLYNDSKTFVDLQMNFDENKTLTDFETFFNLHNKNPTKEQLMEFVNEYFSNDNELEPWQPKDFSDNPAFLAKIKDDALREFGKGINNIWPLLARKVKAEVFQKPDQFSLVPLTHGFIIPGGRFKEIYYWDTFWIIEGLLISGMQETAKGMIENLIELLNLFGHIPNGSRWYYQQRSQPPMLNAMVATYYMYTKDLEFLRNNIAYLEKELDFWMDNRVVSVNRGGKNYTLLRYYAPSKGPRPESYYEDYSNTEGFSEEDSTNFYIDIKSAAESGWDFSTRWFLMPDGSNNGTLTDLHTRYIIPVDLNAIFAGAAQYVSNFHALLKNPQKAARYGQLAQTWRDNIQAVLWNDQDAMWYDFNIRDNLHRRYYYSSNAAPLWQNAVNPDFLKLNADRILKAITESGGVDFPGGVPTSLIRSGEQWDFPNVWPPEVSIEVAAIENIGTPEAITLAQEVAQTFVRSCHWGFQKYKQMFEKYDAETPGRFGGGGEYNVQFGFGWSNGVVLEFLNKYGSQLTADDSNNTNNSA
# Tests used:
# [1] = target: T1, HaTreh-1 (soluble trehalase); type: biochemical
# [2] = substrate: OC[C@H]1O[C@H](O[C@H]2O[C@H](CO)[C@@H](O)[C@H](O)[C@H]2O)[C@H](O)[C@@H](O)[C@@H]1O; assay: enzyme kinetics; type: biochemical, Helicoverpa armigera
Molecule,Ki [1],Km [2]
O[C@H]1[C@H](O)[C@@H](O)CN2CC[C@H](O)[C@H]12 [castanospermine],6.7 µM,
HaTreh-1 (soluble trehalase) (Helicoverpa armigera) (protein) DLPQTCTKPVYCNSNLLHQIQMARLYNDSKTFVDLQMNFDENKTLTDFETFFNLHNKNPTKEQLMEFVNEYFSNDNELEPWQPKDFSDNPAFLAKIKDDALREFGKGINNIWPLLARKVKAEVFQKPDQFSLVPLTHGFIIPGGRFKEIYYWDTFWIIEGLLISGMQETAKGMIENLIELLNLFGHIPNGSRWYYQQRSQPPMLNAMVATYYMYTKDLEFLRNNIAYLEKELDFWMDNRVVSVNRGGKNYTLLRYYAPSKGPRPESYYEDYSNTEGFSEEDSTNFYIDIKSAAESGWDFSTRWFLMPDGSNNGTLTDLHTRYIIPVDLNAIFAGAAQYVSNFHALLKNPQKAARYGQLAQTWRDNIQAVLWNDQDAMWYDFNIRDNLHRRYYYSSNAAPLWQNAVNPDFLKLNADRILKAITESGGVDFPGGVPTSLIRSGEQWDFPNVWPPEVSIEVAAIENIGTPEAITLAQEVAQTFVRSCHWGFQKYKQMFEKYDAETPGRFGGGGEYNVQFGFGWSNGVVLEFLNKYGSQLTADDSNNTNNSA,,72.8 mM
